Results on 7 molecules are retold here after patent US11548893B2 (priority 2017, dated 2023).

Read-outs that look alike come from different tables or passages of the source.

Series [1] relates to EBOV (mucin-deleted glycoprotein, VSV pseudotype). In words: microbe, parasite or virus in culture. The series is classed as cell-based, Zaire ebolavirus. The conditions noted are these: read-out: EC50 Pseudotype Assays EBOV.
For series [2], the system named is EBOV_FL: full-length Ebola Zaire GP (VSV pseudotype). Briefly: microbe, parasite or virus in culture. The conditions noted are these: read-out: EC50 Pseudotype Assays EBOV_FL. The series is classed as cell-based, Zaire ebolavirus.
In series [3] the test system is BDBV (mucin-deleted glycoprotein, VSV pseudotype). In words: microbe, parasite or virus in culture. The conditions noted are these: read-out: EC50 Pseudotype Assays BDBV. The series is classed as cell-based, Bundibugyo ebolavirus.
Series [4] deals with SUDV (glycoprotein, VSV pseudotype). Briefly: microbe, parasite or virus in culture. It counts as cell-based, Sudan ebolavirus. The conditions noted are these: read-out: EC50 Pseudotype Assays SUDV.
Series [5] has as its system MARV (full-length glycoprotein, VSV pseudotype). In words: microbe, parasite or virus in culture. The series is classed as cell-based, Marburg marburgvirus. The conditions noted are these: read-out: EC50 Pseudotype Assays MARV.
Series [6] concerns VSV (native full-length glycoprotein). In words: microbe, parasite or virus in culture. The series is classed as cell-based. The following applies: Vesicular stomatitis virus, Vero, read-out: EC50 Pseudotype Assays VSV.
In another series the test system is EBOV (Mayinga). Briefly: microbe, parasite or virus in culture. The series is classed as cell-based, Ebola virus. The conditions noted are these: for EC50: Zaire ebolavirus, Vero.
The next series has as its target Cyp-p450 1A2 (Homo sapiens, UniProt P05177).
For another series, the target named is Cyp-p450 2B6 (Homo sapiens, UniProt P20813).
For another series, the target named is Cyp-p450 2C9 (Homo sapiens, UniProt P11712).
The next series has as its target Cyp-p450 2C19 (Homo sapiens, UniProt P33261).
The target in another series is Cyp-p450 2D6 (Homo sapiens, UniProt P10635).
The target in the next series is Cyp-p450 3A4 (Homo sapiens, UniProt P08684).
For series [7] the following is noted: pH 7.
A further series has as its target P-gp (Homo sapiens, UniProt P08183).
For series [8] the following is noted: mouse, in vivo.
A further series in a line: in vivo. The following applies: male, CD-1, mouse.
A short description of series [9]: in vitro. The following applies: African green monkey, Cytotox CC50.
Series [10] is described as follows: in vitro. The following applies: African green monkey.
A further series in a line: physchem. The following applies: pH 7, kinetic from dmso stock.
Series [11] can be described thus: in vitro. The conditions noted are these: human, Caco-2.
A short description of series [12]: in vitro. The following applies: human.
Series [13] is described as follows: in vitro. The following applies: mouse.
The target of another series is hERG ion channel (Homo sapiens, UniProt Q12809). In words: biochemical.
The subject of another series is Vero cells. The following applies: African green monkey.
Series [14] has as its system Ebola Zaire.
Series [15] deals with Ebola Zaire. Briefly: microbe, parasite or virus in culture. The conditions noted are these: Zaire ebolavirus, read-out: Ebola Zaire EC50.
For series [16] the following is noted: microsomes, 1 h.
The conditions of series [17]: microsomes, 1 h. This is another data set of the same source.
For series [18] the following is noted: microsomes, 1 h. The source holds these as a separate data set.
For series [19] the following is noted: microsomes, 1 h. The source holds these as a separate data set.
Series [20] concerns Sudan Gulu. In words: organism not typed. The conditions noted are these: HeLa, read-out: Sudan Gulu EC50.
Series [21] deals with Sudan Gulu. Briefly: organism not typed. The following applies: read-out: Sudan Gulu EC50.
Series [22] concerns Ebola Zaire. In words: microbe, parasite or virus in culture. The conditions noted are these: Zaire ebolavirus, HeLa, read-out: Ebola Zaire EC50.
Series [23] has as its system Sudan Gulu.
Series [24] deals with Sudan Gulu. In words: organism not typed. The conditions noted are these: read-out: Sudan Gulu EC50. This is another data set of the same source.
The subject of the next series is native EBOV virus. The following applies: read-out: published EC50 against native EBOV virus; cited from earlier work.
The test system of the next series is Ebola virus infection. The conditions noted are these: human, in vivo; cited from earlier work.
For series [25] the following is noted: in vivo, po, 150 mg/kg; cited from earlier work.
For series [26] the following is noted: human, in vivo; cited from earlier work.
Setting [27] is: Vesicular stomatitis virus, Vero, 24 h.

Sequence of Cyp-p450 3A4 (P08684 whole entry): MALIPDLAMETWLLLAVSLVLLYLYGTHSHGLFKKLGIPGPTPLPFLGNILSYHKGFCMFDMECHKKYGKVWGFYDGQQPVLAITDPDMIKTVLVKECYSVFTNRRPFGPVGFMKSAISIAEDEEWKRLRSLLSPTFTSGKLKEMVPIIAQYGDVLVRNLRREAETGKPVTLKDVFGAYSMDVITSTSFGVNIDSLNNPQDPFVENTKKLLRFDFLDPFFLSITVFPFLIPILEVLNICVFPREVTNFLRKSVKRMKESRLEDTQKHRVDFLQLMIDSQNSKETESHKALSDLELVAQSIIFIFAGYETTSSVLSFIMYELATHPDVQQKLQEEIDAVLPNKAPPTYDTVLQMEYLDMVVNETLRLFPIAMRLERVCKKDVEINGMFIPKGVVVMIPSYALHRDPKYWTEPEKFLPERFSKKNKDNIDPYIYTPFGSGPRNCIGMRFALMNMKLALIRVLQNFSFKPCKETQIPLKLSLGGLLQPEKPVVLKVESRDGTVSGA
Sequence of P-gp (P08183 whole entry): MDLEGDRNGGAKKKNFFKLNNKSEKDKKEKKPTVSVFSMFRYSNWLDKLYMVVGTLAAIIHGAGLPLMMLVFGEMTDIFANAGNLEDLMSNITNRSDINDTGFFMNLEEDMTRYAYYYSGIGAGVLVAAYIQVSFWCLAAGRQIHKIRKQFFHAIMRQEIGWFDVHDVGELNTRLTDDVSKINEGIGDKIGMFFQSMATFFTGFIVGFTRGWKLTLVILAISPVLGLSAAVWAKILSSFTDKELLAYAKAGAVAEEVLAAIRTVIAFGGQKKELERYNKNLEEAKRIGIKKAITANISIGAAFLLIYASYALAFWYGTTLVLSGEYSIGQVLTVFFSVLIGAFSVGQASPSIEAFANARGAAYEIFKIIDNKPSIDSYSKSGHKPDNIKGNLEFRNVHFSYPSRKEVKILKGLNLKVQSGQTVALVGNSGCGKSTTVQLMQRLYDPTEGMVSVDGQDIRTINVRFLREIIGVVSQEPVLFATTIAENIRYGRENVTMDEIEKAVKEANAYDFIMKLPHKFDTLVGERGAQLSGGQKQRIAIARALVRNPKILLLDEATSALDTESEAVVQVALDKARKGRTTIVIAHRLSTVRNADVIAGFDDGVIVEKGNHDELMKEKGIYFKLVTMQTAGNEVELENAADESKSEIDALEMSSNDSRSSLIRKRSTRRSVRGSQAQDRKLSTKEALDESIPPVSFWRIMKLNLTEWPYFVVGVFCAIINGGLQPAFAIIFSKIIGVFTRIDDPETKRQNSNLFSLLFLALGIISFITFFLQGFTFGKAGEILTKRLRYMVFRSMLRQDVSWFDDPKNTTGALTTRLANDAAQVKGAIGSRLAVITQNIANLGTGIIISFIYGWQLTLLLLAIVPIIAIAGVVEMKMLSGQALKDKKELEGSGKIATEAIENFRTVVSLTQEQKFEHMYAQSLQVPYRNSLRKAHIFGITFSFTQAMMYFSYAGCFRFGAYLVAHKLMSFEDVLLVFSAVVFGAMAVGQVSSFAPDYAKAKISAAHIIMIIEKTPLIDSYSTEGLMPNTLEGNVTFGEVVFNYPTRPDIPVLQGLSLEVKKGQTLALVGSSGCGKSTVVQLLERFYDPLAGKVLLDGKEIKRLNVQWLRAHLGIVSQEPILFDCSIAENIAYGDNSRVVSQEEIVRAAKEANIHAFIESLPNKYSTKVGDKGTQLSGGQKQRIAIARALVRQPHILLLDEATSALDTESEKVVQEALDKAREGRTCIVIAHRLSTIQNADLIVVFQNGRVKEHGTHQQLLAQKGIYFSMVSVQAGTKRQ
Sequence of Cyp-p450 2C9 (P11712 whole entry): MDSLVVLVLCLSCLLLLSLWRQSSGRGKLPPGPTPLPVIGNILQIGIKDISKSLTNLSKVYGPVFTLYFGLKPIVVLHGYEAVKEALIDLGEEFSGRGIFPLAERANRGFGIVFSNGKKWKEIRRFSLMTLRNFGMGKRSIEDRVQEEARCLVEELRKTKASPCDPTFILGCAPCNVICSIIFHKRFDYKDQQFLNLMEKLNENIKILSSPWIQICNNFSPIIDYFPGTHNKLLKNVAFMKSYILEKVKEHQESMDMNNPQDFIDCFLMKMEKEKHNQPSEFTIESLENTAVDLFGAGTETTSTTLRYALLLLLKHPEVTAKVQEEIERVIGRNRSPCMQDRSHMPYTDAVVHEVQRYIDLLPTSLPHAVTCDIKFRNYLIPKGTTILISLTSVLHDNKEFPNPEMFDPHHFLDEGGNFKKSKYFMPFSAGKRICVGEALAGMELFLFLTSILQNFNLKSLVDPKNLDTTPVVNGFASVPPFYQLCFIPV
Sequence of hERG ion channel (Q12809 whole entry): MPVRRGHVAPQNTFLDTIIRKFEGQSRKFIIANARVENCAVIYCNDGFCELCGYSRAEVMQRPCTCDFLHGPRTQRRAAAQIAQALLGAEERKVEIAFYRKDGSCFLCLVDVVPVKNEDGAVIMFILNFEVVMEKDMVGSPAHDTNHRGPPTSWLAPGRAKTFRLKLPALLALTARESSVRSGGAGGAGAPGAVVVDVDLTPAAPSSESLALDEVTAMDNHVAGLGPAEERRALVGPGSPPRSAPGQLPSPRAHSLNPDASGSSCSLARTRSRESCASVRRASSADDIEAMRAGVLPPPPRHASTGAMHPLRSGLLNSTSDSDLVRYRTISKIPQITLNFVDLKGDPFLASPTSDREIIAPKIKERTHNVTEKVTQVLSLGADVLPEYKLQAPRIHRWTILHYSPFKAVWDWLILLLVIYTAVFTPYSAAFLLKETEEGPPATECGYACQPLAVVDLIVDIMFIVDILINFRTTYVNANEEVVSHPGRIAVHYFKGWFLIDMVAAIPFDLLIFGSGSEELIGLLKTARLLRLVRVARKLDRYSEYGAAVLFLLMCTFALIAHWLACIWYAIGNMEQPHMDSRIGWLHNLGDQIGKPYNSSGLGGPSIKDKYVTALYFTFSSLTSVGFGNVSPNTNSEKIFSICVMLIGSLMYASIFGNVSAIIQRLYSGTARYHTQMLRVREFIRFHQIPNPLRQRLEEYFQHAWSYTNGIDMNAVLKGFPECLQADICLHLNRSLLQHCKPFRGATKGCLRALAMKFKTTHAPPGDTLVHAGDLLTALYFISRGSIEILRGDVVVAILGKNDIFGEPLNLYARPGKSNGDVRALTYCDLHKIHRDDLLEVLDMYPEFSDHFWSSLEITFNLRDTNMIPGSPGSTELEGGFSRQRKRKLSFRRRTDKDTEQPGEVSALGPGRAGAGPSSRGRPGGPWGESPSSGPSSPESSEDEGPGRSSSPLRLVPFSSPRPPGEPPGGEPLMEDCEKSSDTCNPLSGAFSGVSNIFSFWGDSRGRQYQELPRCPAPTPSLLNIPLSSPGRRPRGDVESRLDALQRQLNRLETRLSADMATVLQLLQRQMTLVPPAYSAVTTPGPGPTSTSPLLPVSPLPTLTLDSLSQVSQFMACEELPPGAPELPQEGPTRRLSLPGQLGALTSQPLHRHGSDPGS
Sequence of Cyp-p450 2C19 (P33261 whole entry): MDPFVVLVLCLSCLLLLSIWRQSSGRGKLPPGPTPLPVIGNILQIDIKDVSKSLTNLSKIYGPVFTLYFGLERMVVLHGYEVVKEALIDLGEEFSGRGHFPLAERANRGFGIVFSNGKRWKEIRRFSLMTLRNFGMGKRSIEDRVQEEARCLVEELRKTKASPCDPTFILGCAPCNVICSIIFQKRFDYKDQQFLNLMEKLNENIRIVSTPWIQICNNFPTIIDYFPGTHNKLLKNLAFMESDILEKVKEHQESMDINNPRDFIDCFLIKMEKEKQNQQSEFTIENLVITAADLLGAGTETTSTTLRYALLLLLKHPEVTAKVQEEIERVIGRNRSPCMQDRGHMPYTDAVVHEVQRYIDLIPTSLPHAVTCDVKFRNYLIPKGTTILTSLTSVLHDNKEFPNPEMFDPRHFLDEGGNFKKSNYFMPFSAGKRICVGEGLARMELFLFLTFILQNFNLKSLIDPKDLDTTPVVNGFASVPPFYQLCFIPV
Sequence of Cyp-p450 2B6 (P20813 whole entry): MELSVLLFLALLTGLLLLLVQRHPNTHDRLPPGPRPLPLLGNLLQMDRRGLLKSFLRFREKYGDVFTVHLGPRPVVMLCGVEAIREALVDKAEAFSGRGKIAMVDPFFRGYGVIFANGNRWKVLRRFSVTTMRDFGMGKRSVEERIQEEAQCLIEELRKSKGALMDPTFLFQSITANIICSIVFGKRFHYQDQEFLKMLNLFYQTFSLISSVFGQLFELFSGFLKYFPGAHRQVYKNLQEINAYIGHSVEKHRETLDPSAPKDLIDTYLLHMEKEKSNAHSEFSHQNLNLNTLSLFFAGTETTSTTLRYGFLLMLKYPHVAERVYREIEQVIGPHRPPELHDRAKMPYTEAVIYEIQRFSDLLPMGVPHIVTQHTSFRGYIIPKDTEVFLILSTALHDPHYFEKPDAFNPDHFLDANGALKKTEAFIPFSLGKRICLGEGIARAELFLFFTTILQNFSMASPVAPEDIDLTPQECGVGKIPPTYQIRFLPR
Sequence of Cyp-p450 2D6 (P10635 whole entry): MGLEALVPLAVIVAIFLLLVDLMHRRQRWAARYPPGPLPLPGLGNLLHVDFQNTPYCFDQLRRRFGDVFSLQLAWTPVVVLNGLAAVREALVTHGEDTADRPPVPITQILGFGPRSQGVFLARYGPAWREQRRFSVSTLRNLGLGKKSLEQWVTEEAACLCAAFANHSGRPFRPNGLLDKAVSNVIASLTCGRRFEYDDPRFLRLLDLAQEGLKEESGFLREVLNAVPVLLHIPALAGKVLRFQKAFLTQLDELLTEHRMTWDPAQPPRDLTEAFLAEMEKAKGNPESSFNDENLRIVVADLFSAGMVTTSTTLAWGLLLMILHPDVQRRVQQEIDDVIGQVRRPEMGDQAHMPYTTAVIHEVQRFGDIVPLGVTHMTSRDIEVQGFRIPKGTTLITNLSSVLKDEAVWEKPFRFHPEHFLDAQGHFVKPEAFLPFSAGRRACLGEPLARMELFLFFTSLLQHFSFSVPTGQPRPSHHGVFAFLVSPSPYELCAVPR

As usually defined, the EC50 is the concentration that produces a half-maximal response. The term IC50 denotes the midpoint of a concentration-inhibition curve. By clearance is commonly meant the rate of elimination divided by the concentration. Usually Vd stands for a proportionality between amount in the body and measured concentration, not a real space. Broadly, the bioavailability is dose-corrected exposure relative to a reference, in per cent. For orientation: half-life means the time in which the quantity being followed falls by half. As a reminder, the AUC(0-inf) is the area under the concentration-time curve extrapolated to infinity. In general, AUC(0-t) refers to exposure summed from dosing to a finite time, without extrapolation to infinity. Broadly, the Cmax is the highest concentration seen after dosing. Broadly, the Tmax is the time from dosing to the highest level. In general, solubility refers to the dissolved amount per volume that the medium holds. One may read the Papp A→B as the apparent permeability from the apical to the basolateral side of a cell layer. The term Papp B→A denotes how fast a substance crosses the layer from the basolateral side. The term efflux ratio denotes the permeability from basolateral to apical divided by that in the opposite direction, in the common usage. The term fraction unbound denotes the share of the substance not bound to proteins or other matrix. As to `CC12CC3CC(C(=O)N[C@H]4CC[C@@H](N)CC4)(C1)CC(c1ccccc1)(C3)C2.Cl` (mixture of isomers) [Example A2], the 50% effective concentration (EC50) is 0.02 µM in [1] (Zaire ebolavirus, Vero, 24 h); 0.024 µM in series [2] (Zaire ebolavirus, Vero, 24 h); 0.09 µM in series [3] (setting [27]); 0.27 µM in series [4] (setting [27]); 3.1 µM in series [5] (setting [27]); over 10 µM in series [6]. In the series on EBOV (Mayinga), this molecule displayed an EC50 of 0.43 µM. The “SI50 (CC50/EC50)” value in the series with EBOV (Mayinga) turned out to be 153. Further, the IC50 against Cyp-p450 1A2, against Cyp-p450 2B6, at Cyp-p450 2C9, against Cyp-p450 2C19, against Cyp-p450 2D6 and against Cyp-p450 3A4 (CYP Inhibition 3A4 (Midazolam)) was over 100 µM throughout. The IC50 against Cyp-p450 3A4 (CYP Inhibition 3A4 (Testosterone)) was 28 µM; on hERG ion channel, over 10 µM. The Turbidimetric solubility in series [7] was over 500 µM. For the same molecule, on P-gp, the “P-gp substrate ID Caco-2 Permeability (+Verapamil) Paap Mean A > B” value is reported as 8.47 10^−6 cm s^−1. In addition, the “P-gp substrate ID Caco-2 Permeability (+Verapamil) Paap Mean B > A” value on P-gp was 7.45 10^−6 cm s^−1. The clearance entry in [8] was “less than hepatic blood flow”; in “in vivo” (iv, 1 mg/kg) it was 29.7 mL/min/kg. Besides, the Vd in the series “in vivo” was determined as 14 L/kg; in the series “in vivo” (iv, 1 mg/kg) it was 13.9 L/kg. In addition, the bioavailability in “in vivo” came out at 72%. Further, the half-life is 7 h in “in vivo” (10 mg/kg); 5.4 h in the series “in vivo” (iv, 1 mg/kg); 7.1 h in the series “in vivo” (po, 10 mg/kg). Besides, the AUC(0-inf) came out at 561 ng·h/mL in “in vivo” (iv, 1 mg/kg) and 4040 ng·h/mL in “in vivo” (po, 10 mg/kg). The area under the curve AUC(0-t) in the series “in vivo” (iv, 1 mg/kg) was 539 ± 23 ng·h/mL; in the series “in vivo” (po, 10 mg/kg) it was 3590 ± 576 ng·h/mL. Also, the Cmax in the series “in vivo” (iv, 1 mg/kg) was found to be 129 ± 40 ng/mL; in “in vivo” (po, 10 mg/kg) it was 239 ± 46 ng/mL. The time to peak (Tmax) in the series “in vivo” (iv, 1 mg/kg) was 0.083 h; in “in vivo” (po, 10 mg/kg) it was 6 h. Also, the CC50 in the series “in vitro [9]” turned out to be 10.1 µM; in the series “in vitro [10]”, 66 µM. This molecule also came in with a solubility in “physchem” of over 500 µM. This molecule also displayed a Papp A→B in “in vitro [11]” of 3.61 ×10⁻⁶ cm/s. The Papp B→A in “in vitro [11]” was found to be 15.6 ×10⁻⁶ cm/s. Further, the efflux ratio in the series “in vitro [11]” was 4.32. The fraction unbound in the series “in vitro [12]” was 0.025; in “in vitro [13]” it was 0.014.

As to `CCC12CC3CC(C(=O)N[C@@H]4CCNC[C@H]4F)(C1)CC(c1ccccc1)(C3)C2` (mixture of isomers) [Example A18], the half-maximal effective concentration (EC50) is 0.2 µM in series [1]; 0.03 µM in series [2]; 0.203 µM in [3]; 0.303 µM in [4]; 3.5 µM in [5]. This molecule came in with a CC50 with Vero cells of 9.8 µM.

As to `CCC12CC3CC(C(=O)N4CCC(N)CC4)(C1)CC(c1ccccc1)(C3)C2` (racemic) [Example A32], the EC50 in series [1] (Zaire ebolavirus, Vero, 24 h) is 0.042 µM; in [2] (Zaire ebolavirus, Vero, 24 h), 0.065 µM; in [3] (setting [27]), 0.09 µM; in series [4] (setting [27]) it was 0.215 µM; in [5] (setting [27]), 7.6 µM; in the series with Ebola Zaire [15] it was 1.33 µM. The “Ebola Zaire SI (CC50/EC50)” value in the series with Ebola Zaire [14] is listed as 64. In addition, the CC50 in the series “in vitro [9]” amounted to 6 µM.

For `CCC12CC3CC(C(=O)NC4CCNCC4(C)C)(C1)CC(c1ccccc1)(C3)C2` (racemic) [Example A52], the EC50 in series [1] is 0.038 µM; in series [2], 0.03 µM; in series [3] it was 0.168 µM; in series [4] it was 0.4 µM; in series [5], 1.2 µM. Besides, in the series with Vero cells, the CC50 is 5.7 µM.

Regarding `C[C@]12CC3CC(C(=O)N4CCC(N)CC4)(C1)C[C@@](c1ccccc1)(C3)C2` [Example B7], the concentration for a half-maximal effect (EC50) in [1] (Zaire ebolavirus, Vero, 24 h) was 0.045 µM; in [2] (Zaire ebolavirus, Vero, 24 h) it was 0.04 µM; in series [3] (setting [27]), 0.072 µM; in [4] (setting [27]), 0.116 µM; in series [5] (setting [27]) it was 8 µM; in the series on Sudan Gulu [20] it was 0.17 µM. Also, the EC50 with Sudan Gulu [21] came out at 0.36 µM; in the series on Ebola Zaire [15], 0.88 µM; in the series on Ebola Zaire [22], 1.9 µM. The “Liver Microsome Stability % Remaining after 60 Minutes, Human” value in series [16] worked out at 86%. For the same molecule, the “Liver Microsome Stability % Remaining after 60 Minutes, Mouse” value in series [17] was 77%. Moreover, the “Liver Microsome Stability % Remaining after 60 Minutes, Monkey” value in [18] is 53%. In addition, the “Liver Microsome Stability % Remaining after 60 Minutes, Guinea Pig” value in [19] is 72%. The molecule further registered a CC50 in “in vitro [9]” of 31 µM.

Turning to `CC1(C)CN(C(=O)C23CC4C[C@@](C)(C2)C[C@](c2ccccc2)(C4)C3)CCC1N` (some centres unmarked) [Example B8], the EC50 in series [1] (Zaire ebolavirus, Vero, 24 h) was 0.012 µM; in series [2] (Zaire ebolavirus, Vero, 24 h) it was 0.05 µM; in series [3] (setting [27]) it was 0.084 µM; in [4] (setting [27]) it was 0.058 µM; in the series on Sudan Gulu [24], 0.13 µM. Moreover, the “Sudan Gulu SI (CC50/EC50)” value in the series with Sudan Gulu [23] is 128. In series [16], the “Liver Microsome Stability % Remaining after 60 Minutes, Human” value was 76%. For the same molecule, the “Liver Microsome Stability % Remaining after 60 Minutes, Mouse” value in series [17] worked out at 47%. Besides, the “Liver Microsome Stability % Remaining after 60 Minutes, Monkey” value in series [18] was found to be 30%. In addition, in series [19], the “Liver Microsome Stability % Remaining after 60 Minutes, Guinea Pig” value came to 56%. Besides, in “in vitro [9]”, the CC50 came out at 12.4 µM.

Regarding `NC(=O)c1nc(F)c[nH]c1=O` [favipiravir, reference compound], in the series on EBOV (Mayinga), the “SI50 (CC50/EC50)” value is over 59 and the 50% effective concentration (EC50) turned out to be 17 µM. The EC50 in the series on native EBOV virus is 67 µM. In the series with Ebola virus infection, the “drop in viral load” value is 3-4 log. Moreover, in the series “in vitro [10]”, the CC50 is over 1000 µM. In addition, in [25], the half-life is recorded as 1.8 h. In series [26], the half-life in humans is 1 to 4 h.
